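Following 48 hours of exposure in 96-well plates, responses at five concentrations were used to interpolate endpoints linearly. GI50 is the concentration that inhibits growth by half.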 Active and inactive are the calls of the source. Cut-off read from the data, not from the text of the source: active = GI50 up to about 1.1 µM and inactive = higher.
Experiments:
Test in all cases: NCI-60 cell line screen, 48 h
[1] = system: MDA-MB-231
[2] = system: SK-MEL-5
[3] = system: KM12
[4] = system: DU-145
[5] = system: OVCAR-3
[6] = system: SK-OV-3
[7] = system: T47D
[8] = system: TK-10
[9] = system: HT-29
[10] = system: NCI-H23
[11] = system: Malme-3M
[12] = system: UACC-257
[13] = system: UO-31
[14] = system: 786-0
[15] = system: M14
[16] = system: OVCAR-5
[17] = system: SK-MEL-28
[18] = system: SNB-19
[19] = system: BT-549
[20] = system: SNB-75
[21] = system: HCT-15
[22] = system: RPMI-8226
[23] = system: NCI-H522
[24] = system: HOP-92
[25] = system: SF-295
[26] = system: K562
[27] = system: A549
[28] = system: NCI/ADR-RES
[29] = system: LOX IMVI
[30] = system: HL-60
[31] = system: SW-620
[32] = system: Hs-578T
[33] = system: UACC-62
[34] = system: HCT-116
[35] = system: ACHN
[36] = system: EKVX
[37] = system: SK-MEL-2
[38] = system: IGROV-1
[39] = system: SF-268
[40] = system: SR
[41] = system: OVCAR-4
[42] = system: MDA-N
[43] = system: CCRF-CEM
[44] = system: NCI-H226
[45] = system: A498
[46] = system: HOP-62
[47] = system: MDA-MB-435
[48] = system: OVCAR-8
[49] = system: SN12C
[50] = system: MCF7
[51] = system: SF-539
[52] = system: MOLT-4
[53] = system: COLO 205
[54] = system: CAKI-1
[55] = system: PC-3
[56] = system: U-251
[57] = system: NCI-H460
[58] = system: RXF 393

Compound: Cc1cc(-c2cc(C(C)(C)C)c(O)c(C(C)(C)C)c2)c(C)cc1-c1cc(C(C)(C)C)c(O)c(C(C)(C)C)c1
- GI50 [1]: > 100 µM (inactive)
- GI50 [2]: > 100 µM (inactive)
- GI50 [3]: > 100 µM (inactive)
- GI50 [4]: > 100 µM (inactive)
- GI50 [5]: > 100 µM (inactive)
- GI50 [6]: > 100 µM (inactive)
- GI50 [7]: > 100 µM (inactive)
- GI50 [8]: > 100 µM (inactive)
- GI50 [9]: > 100 µM (inactive)
- GI50 [10]: > 100 µM (inactive)
- GI50 [11]: > 100 µM (inactive)
- GI50 [12]: > 100 µM (inactive)
- GI50 [13]: > 100 µM (inactive)
- GI50 [14]: > 100 µM (inactive)
- GI50 [15]: > 100 µM (inactive)
- GI50 [16]: > 100 µM (inactive)
- GI50 [17]: > 100 µM (inactive)
- GI50 [18]: > 100 µM (inactive)
- GI50 [19]: > 100 µM (inactive)
- GI50 [20]: > 100 µM (inactive)
- GI50 [21]: > 100 µM
- GI50 [22]: > 100 µM (inactive)
- GI50 [23]: > 100 µM (inactive)
- GI50 [24]: 12.1 µM (inactive)
- GI50 [25]: > 100 µM (inactive)
- GI50 [26]: > 100 µM (inactive)
- GI50 [27]: > 100 µM (inactive)
- GI50 [28]: > 100 µM (inactive)
- GI50 [29]: > 100 µM (inactive)
- GI50 [30]: > 100 µM (inactive)
- GI50 [31]: > 100 µM (inactive)
- GI50 [32]: > 100 µM (inactive)
- GI50 [33]: > 100 µM (inactive)
- GI50 [34]: > 100 µM (inactive)
- GI50 [35]: > 100 µM (inactive)
- GI50 [36]: > 100 µM (inactive)
- GI50 [37]: > 100 µM (inactive)
- GI50 [38]: > 100 µM (inactive)
- GI50 [39]: > 100 µM (inactive)
- GI50 [40]: 41.2 µM (inactive)
- GI50 [41]: > 100 µM (inactive)
- GI50 [42]: > 100 µM (inactive)
- GI50 [43]: > 100 µM (inactive)
- GI50 [44]: > 100 µM (inactive)
- GI50 [45]: 27.3 µM (inactive)
- GI50 [46]: > 100 µM (inactive)
- GI50 [47]: 13.6 µM (inactive)
- GI50 [48]: > 100 µM (inactive)
- GI50 [49]: > 100 µM (inactive)
- GI50 [50]: > 100 µM (inactive)
- GI50 [51]: > 100 µM (inactive)
- GI50 [52]: > 100 µM (inactive)
- GI50 [53]: > 100 µM (inactive)
- GI50 [54]: > 100 µM (inactive)
- GI50 [55]: > 100 µM (inactive)
- GI50 [56]: > 100 µM (inactive)

Compound: CCOC(=O)CNC(=O)C(CSCC1C(=O)Nc2ccccc21)NC(=O)CCC(N)C(=O)OCC (stereo unspecified)
- GI50 [1]: 1.58 µM (inactive)
- GI50 [2]: 1.6 µM (inactive)
- GI50 [3]: 2.89 µM (inactive)
- GI50 [4]: 3.75 µM (inactive)
- GI50 [5]: 2.01 µM (inactive)
- GI50 [7]: 5.65 µM (inactive)
- GI50 [8]: 1.62 µM (inactive)
- GI50 [57]: 3.28 µM (inactive)
- GI50 [9]: 1.55 µM (inactive)
- GI50 [10]: 2.26 µM (inactive)
- GI50 [58]: 1.19 µM (inactive)
- GI50 [11]: 1.88 µM (inactive)
- GI50 [12]: 4.16 µM (inactive)
- GI50 [13]: 1.23 µM (inactive)
- GI50 [14]: 1.63 µM (inactive)
- GI50 [15]: 1.84 µM (inactive)
- GI50 [16]: 1.84 µM (inactive)
- GI50 [17]: 1.68 µM (inactive)
- GI50 [18]: 7.46 µM (inactive)
- GI50 [19]: 2.44 µM (inactive)
- GI50 [21]: 1.04 µM
- GI50 [22]: 1.27 µM (inactive)
- GI50 [23]: 1.63 µM (inactive)
- GI50 [24]: 1.25 µM (inactive)
- GI50 [25]: 2.77 µM (inactive)
- GI50 [26]: 0.242 µM (active)
- GI50 [27]: 2.34 µM (inactive)
- GI50 [28]: 1.08 µM (active)
- GI50 [29]: 0.46 µM (active)
- GI50 [30]: 2.36 µM (inactive)
- GI50 [31]: 1.19 µM (inactive)
- GI50 [32]: 4.21 µM (inactive)
- GI50 [33]: 1.57 µM (inactive)
- GI50 [34]: 0.551 µM (active)
- GI50 [35]: 1.62 µM (inactive)
- GI50 [36]: 1.75 µM (inactive)
- GI50 [37]: 1.87 µM (inactive)
- GI50 [38]: 1.15 µM (inactive)
- GI50 [39]: 1.86 µM (inactive)
- GI50 [40]: 0.24 µM (active)
- GI50 [41]: 2.78 µM (inactive)
- GI50 [42]: 1.79 µM (inactive)
- GI50 [43]: 0.269 µM (active)
- GI50 [44]: 1.93 µM (inactive)
- GI50 [45]: 3.12 µM (inactive)
- GI50 [46]: 2.1 µM (inactive)
- GI50 [47]: 1.32 µM (inactive)
- GI50 [48]: 2.81 µM (inactive)
- GI50 [49]: 1.52 µM (inactive)
- GI50 [50]: 1.07 µM (active)
- GI50 [51]: 0.247 µM (active)
- GI50 [53]: 1.24 µM (inactive)
- GI50 [54]: 0.745 µM (active)
- GI50 [55]: 1.88 µM (inactive)
- GI50 [56]: 1.31 µM (inactive)

From ChEMBL document CHEMBL1201862, “PubChem BioAssay data set” (2004)
